The values below come from a melting point compilation (Tetko et al.; mined from patent text by program, amines drawn as free bases though some values may be those of a salt).

Consider `CON1CCC2(CC1)C(=O)C(c1c(C)cc(C)cc1C)([N+](=O)[O-])C(=O)N2C` (stereo unspecified), for which the melting point is 127 to 129 °C.

Regarding `CCC(Cc1ccc(C(C)C(=O)O)cc1)C(C)O` (stereo unspecified), the melting point is 100 to 103 °C.

Regarding `CCCCS(=O)(=O)NCc1ccc(CCN2CCN(c3ccncc3)CC2)cc1`, the melting point lay within 154 to 156 °C. Take `O=C(O)C(Oc1ccc(F)cc1)c1ccc(Oc2ccc(Cl)cc2)cc1` (stereo unspecified): the melting point is 106 to 111 °C. The value for `Cc1ccc(O)cc1N=C(c1ccccc1)c1ccccc1` was 106 to 108 °C; that for `COc1ccc2c(c1)CN(Nc1ccncc1)CC2` was 188 to 189 °C. With `C=C(C)C(=O)NCC(C)OC(=O)C(Br)(Br)Br` (stereo unspecified) the figure was 104 to 105 °C; with `CCOCc1nc2c(N)nc3cc(OCCCN4CCCC4=O)ccc3c2n1CCCCNC(=O)NC(C)C`, 98 to 101 °C; with `CCOC(=O)N1C[C@@H]2CC[C@H]1C(=O)C2`, 68.5 to 69.5 °C.

Take `O=C(O)[C@@H]1Cc2cc(O)c(O)cc2CN1C(=O)c1ccccc1`: the melting point lay in the range of 189 to 192 °C. With `CCc1nc2c(cnn2CC)c(NC2CCOCC2)c1CNC(=O)c1cccc(C(=O)NCc2cc(Cl)cc(-c3cccc(CN4CCNCC4)c3)c2)c1` the figure was 119 to 122 °C; with `CCCCc1nn(-c2cc(NC(=O)NCCC)ccc2Cl)c(=O)n1Cc1ccc(-c2ccccc2S(=O)(=O)NC(=O)c2ccccc2Cl)cc1`, above 208 °C; with `N=C(N)Nc1nc(CCCCNc2c(NCCCCc3csc(NC(=N)N)n3)c(=O)c2=O)cs1`, 228 to 229 °C.

The compound `O=C(O)C1CC1c1cc(=O)c2ccc3ccccc3c2o1` (stereo unspecified) gave a melting point of 286 to 288 °C. With `CN1C(=O)C(NC(=O)Oc2ccc([N+](=O)[O-])cc2)N=C(c2ccccc2F)c2ccccc21` (stereo unspecified) the figure was 202 to 204 °C; with `COc1ccc(C=C2NC(=O)NC2=O)cc1OC`, 153 to 158 °C. The value for `N#CCc1cccc2c1CCN=C2c1ccc([N+](=O)[O-])cc1` was 138 to 139 °C; that for `CCc1nn(CCCO)c(CC)c1Cc1cc(Cl)cc(Cl)c1` was 56 to 59 °C.

Compound `CCCOC(=O)c1ccc(C#CC2(O)CN3CCC2CC3)cc1O` (stereo unspecified) gave a melting point of 173 to 175 °C. The value for `Cc1c(-c2ccc(NC(=O)OCC(C)C)cc2)nc2n1CCc1ccccc1C2OC1CCN(C)CC1` (stereo unspecified) was 196 °C.

In turn, `CN(C=O)C1CCN(CC2=Cc3ccccc32)CC1` had a melting point of 86 to 88 °C. With `O=C1CC[C@@H](C(=O)Nc2ccc(-c3ncc(C(=O)O)c(O)n3)cc2)N1` the figure was above 300 °C; with `O=C(c1cc(Cl)ccc1Nc1ccncc1)N1CCCCC1`, 158 to 159 °C; with `CNC(=C[N+](=O)[O-])NCCSCc1csc(CN2CCCCC2)n1`, 100 to 103 °C. The value for `O=C(O)C1CCCc2sc(=O)[nH]c21` (stereo unspecified) was 192 °C; that for `CC(=O)OC1CCC2C3CCC4=CC(=O)C=CC4(C)C3CCC12C` (stereo unspecified) was 165 °C.

The compound `CCCSc1nc(Sc2ccc(OC)cc2)c(C(=O)O)n1Cc1cc2c(cc1Cl)OCO2` registered a melting point of 164 °C. With `Brc1cncc2nc(SCc3ccccc3)nn12` the figure was 94 to 95 °C; with `COc1ccc(-c2ccc(OC)cc2[N+](=O)[O-])cc1`, 122 to 124 °C; with `CC(C)C[C@H](O)[C@H](O)[C@H](CC1CCCCC1)NC(=O)OC(C)(C)C`, 128 to 130 °C.

Take `O=C(c1ccc(F)cc1F)N1Cc2cccnc2Nc2ccccc21`: the melting point fell in the range of 161 to 163 °C.

`CCCCCCOc1nc(-c2ccccc2)sc1-c1ccccc1` returned a melting point of 70 to 72 °C. Compound `CCOc1ccc(CCCOc2c(CC(=O)O)cccc2OC)c(Oc2ccc(Cl)cc2Cl)n1` registered a melting point of 89 to 91 °C. `CC(=O)NCCNC1=NS(=O)(=O)c2cc(Cl)ccc2N1` returned a melting point of 295 to 297 °C. With `CCOC(=O)C1(CCCN)CCCCC1(O)c1ccccc1` (stereo unspecified) the figure was 130 to 133 °C; with `O=C(Nc1nccs1)c1cn(CC2CC2)c2cc(Cl)ccc12`, 185 to 187 °C. Regarding `COc1ccc(-c2ccc(C(CCC(=O)O)=NO)cc2)cc1`, the melting point lay within 157 to 160 °C. With `CNC(=NS(=O)(=O)C(F)(F)F)SC` the figure was 88 to 89 °C; with `CN(c1ccccc1)c1nc(Cl)nc(N2CCOCC2)n1`, 93.5 to 95.5 °C; with `COc1cccc(C23CN(C)CC2CC32OCC(C)(C)CO2)c1` (stereo unspecified), 132 to 135 °C. With `O=C(NC1CCN(CCc2ccc(Cl)cc2)C1)C12CC3CC(CC(C3)C1)C2` (stereo unspecified) the figure was 94 to 95 °C; with `O=C(O)Cc1ccc(NCCNC(=O)C2Cc3ccccc3N2S(=O)(=O)c2ccc(-c3cc(C(F)(F)F)ccc3Cl)cc2)cc1` (stereo unspecified), 110 to 118 °C; with `O=C1c2ccccc2C(=O)N1Cc1noc(-c2ncn3c2[C@@H]2CCN2C(=O)c2c(Cl)cccc2-3)n1`, 189 to 192 °C. For the compound `COC(=O)CC(=O)/C=C/c1c(-c2ccc(F)cc2OC)n(C(C)C)c(=O)c2ccccc12`, the melting point lay in the range of 164 to 166 °C. The value for `C=CCNc1nc(NC(=O)Nc2ccccc2OC)nc(N(CCC(=O)O)Cc2ccc(Cl)c(Cl)c2)n1` was 201 °C. For `Cc1cccc(NC(=O)NCC(=O)N(CC(=O)N(C)c2ccc(F)cc2F)c2ccccc2)c1`, the melting point amounted to 100 °C. With `CC(C)Cc1ccc(C(C)C(=O)NCCN(O)C(N)=O)cc1` (stereo unspecified) the figure was 150 to 152 °C. With `Cc1scc2c1N(C(=O)NCCN1CCC(CCCN(C)C)CC1)c1ccccc1NC2=O` the figure was above 300 °C. The value for `Brc1ccc(Br)c2nsnc12` was 181 to 183 °C. The compound `CC(=O)C1=CCC2C3CCC4CC(O)CCC4(C)C3C(=O)CC12C` (stereo unspecified) showed a melting point of 218 °C. With `Cc1cc(C)cc(N2CCN(Cc3ncn(C(c4ccccc4)(c4ccccc4)c4ccccc4)c3C)C2=O)c1` the figure was 199 to 202 °C.

The compound `CC(Oc1ccc(O)cc1)C(=O)Nc1ccc(OC(F)(F)F)cc1` (stereo unspecified) showed a melting point of 74.5 to 75 °C. With `CC(C)Cn1c(C(F)(F)F)nc2cc(F)c(-n3c(=O)cc(C(F)(F)F)n(C)c3=O)cc21` the figure was 169 to 170 °C; with `COC1=CC(=O)c2c(c(COc3cc(C=Cc4cc(OC)c(OC)c(OC)c4)ccc3OC)c(C)n2C)C1=O`, 192 to 194 °C. The value for `COc1ccc([C@@H]2SC(c3ccccc3)=C(C)N(CCN(C)C)C(=O)[C@H]2O)cc1` (relative stereo) was 132 to 133 °C. In turn, `O=C(CCCCCNC(=O)CCCc1ccccc1)NO` displayed a melting point of 92 to 93 °C. Compound `Cc1cc(=O)c(-c2ccc(Oc3ccc(OC(F)(F)F)cc3)cc2)c(C)[nH]1` yielded a melting point of 244 to 248 °C. In the case of `Cc1ccc(-c2nc(-c3ccc(O)cc3O)nc(-c3ccc(O)cc3O)n2)c(C)c1`, the melting point was 204 to 207 °C. With `CC(C)(C)ONC(=O)c1ccc(Cc2ccc(N)cc2)cc1` the figure was 110 to 118 °C; with `CN1C(C)(C#N)CCC1(C)C#N` (stereo unspecified), 81 to 83 °C. With `Cc1ccc(S(=O)(=O)N2CCC(c3ccccc3)CC2)cc1` the figure was 153 to 154 °C; with `CCCc1c2nc(C(=O)OCC)cc(C#N)c2cc2c(=O)cc(C(=O)OCC)oc12`, 207 to 209 °C; with `COc1ccc(C2CCc3cc(OC)ccc3C2CCO)cc1` (stereo unspecified), 95 °C. With `Cc1oc(-c2ccco2)nc1COc1ccc(CO)cc1Cl` the figure was 143 to 144 °C. On to `CCC(Cn1nc(-c2ccccc2)c(-c2ccccc2)c(C#N)c1=O)[N+](=O)[O-]` (stereo unspecified), for which the melting point lay in the range of 154 to 155 °C. In the case of `O=C(Cc1cccc(Br)c1)Nc1cccc(C(=O)NCCO)c1`, the melting point worked out at 202 °C. The value for `NC(Cc1ccc2c(c1)CCC2)=NO` was 60 °C; that for `O=C(CCCCCl)Nc1nc2ccccc2[nH]1` was 161 to 163 °C; that for `Cc1ccc(S(=O)(=O)OC(c2cccc(C(OS(=O)(=O)c3ccc(C)cc3)(C(F)(F)F)C(F)(F)F)c2)(C(F)(F)F)C(F)(F)F)cc1` was 131 °C.

`O=CN1CCc2cc(O)ccc2C1` gave a melting point of 186 °C. Compound `CCCOc1ccc2c(c1)C(OS(=O)(=O)F)=C(C(=O)OC)[C@H]2c1ccc2c(c1)OCO2` returned a melting point of 160 to 161 °C. The value for `COCC(=O)Nc1ccc2ncnc(Nc3cc(Cl)c(Cl)cc3F)c2c1` was 204 to 206 °C. With `COc1cc(O)c2c(=O)c(OC)c(-c3ccc(O)cc3OC)oc2c1` the figure was 191 to 192 °C; with `Cc1ccc(C(=O)NC(=O)Nc2cc3c(cc2F)/C(=C/c2[nH]c(C)c(CCC(=O)O)c2C)C(=O)N3)cc1`, 265 to 270 °C; with `C[C@H](O)CN1CCN(c2ccc(Nc3ncc4ccc(-c5ccccc5N(C)S(C)(=O)=O)n4n3)cc2F)CC1`, 165 °C. With `Cc1cc(C(=O)Nc2ccc(S(=O)(=O)C(F)(F)F)cc2Cl)c(O)c(C(C)(C)C)c1` the figure was 209 to 212 °C; with `CSCC(C)(C)NC(=O)c1c(I)cccc1[N+](=O)[O-]`, 114 to 115 °C. Compound `CCOc1c(C)c(N2CCN(c3ccc(OC)c(C)c3)CC2)c(C)c2c1OC(C)C2` (stereo unspecified) returned a melting point of 80 to 83 °C. The value for `O=C1C2=C(CCCC2)C(=O)N1c1ccc(Cl)c(CO)c1` was 77 to 79 °C.

Compound `CCCC(=O)c1ccc(N(CCO)CCO)cc1` registered a melting point of 72 to 75 °C. The value for `Cc1c(CC(=O)NC2CCN(Cc3ccc(Cl)c(Cl)c3)CC2)cnn1-c1ccccc1` was 165 °C; that for `Cc1ccccc1C(=O)Nc1ccc(C(=O)N2CCCC(OCCO)c3cc(Cl)ccc32)cc1` (stereo unspecified) was 185 to 188 °C.

Compound `O=C(C(=O)N1CCC(Oc2cccc(Cl)c2)CC1)c1c[nH]c2ccccc12` yielded a melting point of 145 to 147 °C. The value for `O=c1[nH]c2ncc(-c3ccc(-n4cccn4)cc3)nc2n1CC1CCOCC1` was 294 to 296 °C; that for `NC(=O)C1CCc2cc(S(=O)(=O)Nc3ccc(-n4nnn(CCCC5CCCC5)c4=O)cc3)ccc2O1` (stereo unspecified) was 202 to 205 °C; that for `CC1CCc2c(Cl)c(N3CCOCC3)cc3c(=O)c(C(=O)O)cn1c23` (stereo unspecified) was 271 to 274 °C.
